What was measured:
Assay type in all cases: cell-based, human
[1] = system: active Cdc42 in MDA-MB-231 cells; experiment: Active GTPase pull-down (GST-PAK-GBD); conditions: 0-3 μM, 1 h
Method: (§1) FIG. 5: Cytoskeletal changes induced by IODVA1 treatment. IODVA1 inhibits lamellipodia and circular dorsal ruffle (CDR) formation in MDA-MB-231 cells and decreases Rac activation. (A) IODVA1 inhibits EGF-induced lamellipodia formation in MDA-MB-231 cells. MDA-MB-231 cells were plated on fibronectin-coated coverslips, serum starved for 4 h, incubated with the indicated concentrations of IODVA1 for 1 h, then EGF (50 ng/mL) stimulated, fixed and stained with Phalloidin Alexa Fluor 594 (F-Actin, pseudocolored red) and DAPI (nuclei, pseudocolored blue). […] The percentage of cells with CDRs was counted as the number of cells with CDRs normalized to the total number of cells in the field. Around 150 cells were counted per condition per experiment. Cells with multiple CDRs were counted only once. […] Levels of active Rac (RacGTP, % of control), active Cdc42 (Cdc42GTP, % of control) and active RhoA (RhoAGTP, % of control) were quantified using ImageJ and ImageLab and show combined data as mean±s.e.m. from at least 3 independent experiments. […]
(§2) To confirm that IODVA1 interferes with Rac activation, applicants checked the levels of active Rac and its downstream effector PAK1/2. MDA-MB-231 cells were incubated with IODVA1 (0-3 μM) for 1 h and levels of GTP-bound active Rac were measured by GST-PAK-GBD pull-downs and quantified (FIG. 5C). […]

[2] = system: active Rac (RacGTP) in MDA-MB-231 cells; experiment: Active GTPase pull-down (GST-PAK-GBD); conditions: 0-3 μM, 1 h, dose-dependent
Method: as §1, §2

MDA-MB-231 cells = experiment: Cell spreading on fibronectin; conditions: 30 min exposure, serum-free
Method: FIG. 6: IODVA1 inhibits cell-substratum and cell-cell interactions. (A) IODVA1 impedes spreading of MCF7 and MDA-MB-231 cells on fibronectin. MCF7, T47D, and MDA-MB-231 cells were incubated on fibronectin coated coverslips for 10 min, then further incubated with the indicated concentrations of IODVA1 for 30 min in serum-free media, fixed and observed by bright field microscopy. Areas of single cells were calculated from 6 random fields (no less than 300 cells total per treatment group). Results shown are mean±s.e.m. of a single experiment and are representative of three independent experiments. (B) Effects of IODVA1 treatment on spheroid formation in MCF10A, MCF7, T47D, and MDA-MB-231 cells. […] Aggregates and spheroids were dissociated with accutase and trituration, and the number of live cells was determined by trypan blue exclusion. […]
Applicants assessed if IODVA1 interferes with cell spreading on the extracellular matrix, an event that is also governed by the rearrangement of the actin cytoskeleton. […] No changes in the area in T47D cells were detected, although more rounded cells in the presence of IODVA1 were observed.
For cell spreading, MDA-MB-231, MCF7 and T47D were seeded on fibronectin-coated coverslips in serum-free media. […] Six random fields were imaged under 20× objective and cell area of individual cells were quantified to assess the degree of spreading (ImageJ). […]

OC1(c2ccccn2)N=C(Nc2nc3ccccc3[nH]2)N=C1c1ccccn1 (stereo not drawn) [IODVA1, (Z)-2-((1H-benzo[d]imidazol-2-yl)imino)-4,5-di(pyridin-2-yl)-2,5-dihydro-1H-imidazol-5-ol]
levels of active Cdc42 [1]: decreased but only at the highest IODVA1 concentration
levels of active Rac [2]: significantly decreases
concentration at which spreading is interfered with (decrease in cell area) (MDA-MB-231 cells): 1 µM

Source: US11564913B2, “Compositions and methods for treating cancer” (Children's Hospital Medical Center, priority 2019, dated 2023)
